Measured values taken from US10793564B2, “Amino acid compounds and methods of use” (Pliant Therapeutics, Inc., priority 2018, dated 2020).

target: recombinant human integrin αVβ6 (Homo sapiens (Human), UniProt P06756+P18564); test: Solid phase integrin αVβ6 binding assay; conditions: inhibition of recombinant TGFβ1 LAP binding to coated integrin, IC50 presented in four ranges, read-out: αvβ6 Inhibition IC50 (nM) - range
In short: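 Plates coated with recombinant human αVβ6 (2 μg/mL) and blocked; compounds competed with TGFβ1 LAP (0.67 μg/mL) in Mn2+ (0.5 mM)/BSA/sucrose TBS for 2 h at 25° C. Bound LAP detected by biotin anti-LAP and peroxidase-streptavidin; IC50 by four-parameter logistic fit.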

Chain of recombinant human integrin αVβ6 (P06756 31-992): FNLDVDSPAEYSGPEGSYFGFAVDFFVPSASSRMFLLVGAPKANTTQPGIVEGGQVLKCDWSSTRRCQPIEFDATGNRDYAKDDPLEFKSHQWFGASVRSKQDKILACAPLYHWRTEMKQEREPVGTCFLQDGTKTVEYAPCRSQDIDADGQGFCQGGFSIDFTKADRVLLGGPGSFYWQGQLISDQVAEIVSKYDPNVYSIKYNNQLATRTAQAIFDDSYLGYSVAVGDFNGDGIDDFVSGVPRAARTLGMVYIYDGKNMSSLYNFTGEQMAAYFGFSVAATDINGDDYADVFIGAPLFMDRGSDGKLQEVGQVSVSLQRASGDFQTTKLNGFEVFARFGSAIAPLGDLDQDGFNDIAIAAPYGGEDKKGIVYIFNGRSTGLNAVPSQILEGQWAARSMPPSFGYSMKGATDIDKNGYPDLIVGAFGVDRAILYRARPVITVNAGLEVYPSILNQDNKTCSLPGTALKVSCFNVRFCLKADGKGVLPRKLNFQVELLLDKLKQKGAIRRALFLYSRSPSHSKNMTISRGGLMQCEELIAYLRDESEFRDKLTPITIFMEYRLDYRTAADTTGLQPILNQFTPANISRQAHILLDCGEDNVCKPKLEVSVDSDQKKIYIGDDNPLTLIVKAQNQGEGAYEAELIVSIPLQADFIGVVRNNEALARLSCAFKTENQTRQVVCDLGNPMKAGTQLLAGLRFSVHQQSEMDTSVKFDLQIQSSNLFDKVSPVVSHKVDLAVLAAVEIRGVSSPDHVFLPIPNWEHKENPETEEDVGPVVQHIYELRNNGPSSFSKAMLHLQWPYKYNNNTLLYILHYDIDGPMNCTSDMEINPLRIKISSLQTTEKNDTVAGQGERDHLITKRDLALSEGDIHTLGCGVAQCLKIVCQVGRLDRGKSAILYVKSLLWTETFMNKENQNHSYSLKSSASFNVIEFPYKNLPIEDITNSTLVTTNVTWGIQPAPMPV
Chain of recombinant human integrin αVβ6 (P18564 22-707): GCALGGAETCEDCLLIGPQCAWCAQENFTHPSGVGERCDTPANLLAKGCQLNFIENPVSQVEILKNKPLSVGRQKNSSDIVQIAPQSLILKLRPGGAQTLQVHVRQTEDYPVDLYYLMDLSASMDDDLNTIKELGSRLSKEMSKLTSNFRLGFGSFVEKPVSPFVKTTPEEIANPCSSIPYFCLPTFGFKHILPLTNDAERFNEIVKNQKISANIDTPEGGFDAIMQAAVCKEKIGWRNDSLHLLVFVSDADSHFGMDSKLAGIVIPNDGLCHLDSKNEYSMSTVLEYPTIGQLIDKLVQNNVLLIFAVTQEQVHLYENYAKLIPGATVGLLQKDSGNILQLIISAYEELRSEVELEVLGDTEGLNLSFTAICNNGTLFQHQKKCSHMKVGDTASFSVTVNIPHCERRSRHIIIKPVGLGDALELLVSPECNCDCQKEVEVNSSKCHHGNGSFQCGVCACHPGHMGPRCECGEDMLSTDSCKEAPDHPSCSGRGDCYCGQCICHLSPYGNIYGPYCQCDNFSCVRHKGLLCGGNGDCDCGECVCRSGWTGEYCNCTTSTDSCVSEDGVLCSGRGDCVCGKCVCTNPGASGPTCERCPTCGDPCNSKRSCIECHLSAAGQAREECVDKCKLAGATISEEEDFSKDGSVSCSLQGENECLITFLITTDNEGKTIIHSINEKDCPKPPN

First: CS(=O)(=O)CCN(CCCCc1ccc2c(n1)NCCC2)CC[C@H](Nc1nc(-c2cccnc2)nc2ccccc12)C(=O)O [Compound 107, (S)-4-((2-(methylsulfonyl)ethyl) (4-(5,6,7,8-tetrahydro-1,8-naphthyridin-2-yl)butyl)amino)-2-((2-(pyridin-3-yl)quinazolin-4-yl)amino) butanoic Acid]
Second: COC[C@@H](F)CN(CCCCc1ccc2c(n1)NCCC2)CC[C@H](Nc1nc(-c2cccnc2)nc2ccccc12)C(=O)O [Compound 109, (S)-4-(((S)-2-fluoro-3-methoxypropyl) (4-(5,6,7,8-tetrahydro-1,8-naphthyridin-2-yl)butyl)amino)-2-((2-(pyridin-3-yl)quinazolin-4-yl)amino) butanoic Acid]
The IC50 of the first is higher: 250 to 1000 nM for the first, < 50 nM for the second.

Going from COC[C@@H](F)CN(CCCCc1ccc2c(n1)NCCC2)CC[C@H](Nc1cc(-n2cccn2)ncn1)C(=O)O [Compound 108, (S)-2-((6-(1H-pyrazol-1-yl)pyrimidin-4-yl)amino)-4-(((S)-2-fluoro-3-methoxypropyl) (4-(5,6,7,8-tetrahydro-1,8-naphthyridin-2-yl)butyl)amino) butanoic Acid] to COC[C@@H](F)CN(CCCCc1ccc2c(n1)NCCC2)CC[C@H](Nc1ncncc1-c1ccccc1)C(=O)O [Compound 110, (S)-4-(((S)-2-fluoro-3-methoxypropyl) (4-(5,6,7,8-tetrahydro-1,8-naphthyridin-2-yl)butyl)amino)-2-((5-phenylpyrimidin-4-yl)amino) butanoic Acid], the IC50 falls from > 1000 nM to < 50 nM. The second is the more potent here.

N#Cc1cnc(N[C@@H](CCN(CCCCc2ccc3c(n2)NCCC3)CCOc2ccccc2)C(=O)O)nc1 [Compound 111, (S)-2-((5-cyanopyrimidin-2-yl)amino)-4-((2-phenoxyethyl) (4-(5,6,7,8-tetrahydro-1,8-naphthyridin-2-yl)butyl)amino) butanoic Acid] and O=C(O)[C@H](CCN(CCCCc1ccc2c(n1)NCCC2)CCOc1ccccc1)Nc1ncc(C2CC2)cn1 [Compound 117, (S)-2-((5-cyclopropylpyrimidin-2-yl)amino)-4-((2-phenoxyethyl) (4-(5,6,7,8-tetrahydro-1,8-naphthyridin-2-yl)butyl)amino) butanoic Acid] cannot be ordered by IC50: < 50 nM for the first, < 50 nM for the second.

First: O=C(O)[C@H](CCN(CCCCc1ccc2c(n1)NCCC2)CC(F)F)Nc1ncnc2[nH]ncc12 [Compound 112, (S)-2-((1H-pyrazolo[3,4-d]pyrimidin-4-yl)amino)-4-((2,2-difluoroethyl) (4-(5,6,7,8-tetrahydro-1,8-naphthyridin-2-yl)butyl)amino) butanoic Acid]
Second: O=C(O)[C@H](CCN(CCCCc1ccc2c(n1)NCCC2)C1CC1)Nc1ncnc2[nH]ncc12 [Compound 116, (S)-2-((1H-pyrazolo[3,4-d]pyrimidin-4-yl)amino)-4-(cyclopropyl(4-(5,6,7,8-tetrahydro-1,8-naphthyridin-2-yl)butyl)amino) butanoic Acid]
The IC50 of the first is higher: 250 to 1000 nM for the first, 50 to 250 nM for the second.

First: O=C(O)[C@H](CCN(CCCCc1ccc2c(n1)NCCC2)C1CC1)Nc1ncc(C(F)(F)F)cn1 [Compound 114, (S)-4-(cyclopropyl(4-(5,6,7,8-tetrahydro-1,8-naphthyridin-2-yl)butyl)amino)-2-((5-(trifluoromethyl)pyrimidin-2-yl)amino) butanoic Acid]
Second: O=C(O)[C@H](CCN(CCCCc1ccc2c(n1)NCCC2)C1CC1)Nc1ccnc(C(F)(F)F)n1 [Compound 115, (S)-4-(cyclopropyl(4-(5,6,7,8-tetrahydro-1,8-naphthyridin-2-yl)butyl)amino)-2-((2-(trifluoromethyl)pyrimidin-4-yl)amino) butanoic Acid]
The IC50 of the first is lower: < 50 nM for the first, 50 to 250 nM for the second.

N#Cc1cnc(N[C@@H](CCN(CCCCc2ccc3c(n2)NCCC3)CC(F)F)C(=O)O)nc1 [Compound 118, (S)-2-((5-cyanopyrimidin-2-yl)amino)-4-((2,2-difluoroethyl) (4-(5,6,7,8-tetrahydro-1,8-naphthyridin-2-yl)butyl)amino) butanoic Acid] was tested, and the IC50 was > 1000 nM.
